Our source for the GI50 and TGI values is PubChem BioAssay (NCI).

Test systems include 786-0 renal; BT-549 breast; DU-145 prostate; HOP-92 NSCLC; HT29 colon; IGROV1 ovarian; KM12 colon; MOLT-4 leukemia; SF-295 CNS; TK-10 renal.
Common to all, as to assay: NCI anticancer screen, dose series, 48 h

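Protocol summary: plate cells (96-well), add compound at 5 concentrations, incubate 48 h, interpolate endpoints linearly. The concentration for 50% growth inhibition is given as GI50. At the TGI there is no net growth.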

In the case of `O=C(c1ccccc1)C(Cl)C(Cl)c1ccccc1` (stereo not given), the GI50 is 1.79 µM in the assay with 786-0 renal; 2.55 µM with BT-549 breast; 2.89 µM with DU-145 prostate; 2.31 µM with HOP-92 NSCLC; 2.05 µM in the assay on HT29 colon; 3.45 µM in the assay on IGROV1 ovarian. In addition, the GI50 was 3.76 µM in the assay on KM12 colon, 2.33 µM with MOLT-4 leukemia, 12.9 µM in the assay on SF-295 CNS and 3.14 µM in the assay with TK-10 renal. The TGI with 786-0 renal was 3.52 µM; in the assay on BT-549 breast, 6.12 µM; in the assay on DU-145 prostate it was 10.2 µM; in the assay on HOP-92 NSCLC, 6.99 µM; in the assay with HT29 colon it was 4.12 µM; in the assay with IGROV1 ovarian it was 11.4 µM. Further, the TGI in the assay on KM12 colon is 15.1 µM; in the assay on MOLT-4 leukemia, 6.25 µM; in the assay with SF-295 CNS, 26 µM; in the assay with TK-10 renal, 9.12 µM.

Consider `Cc1cc(Cl)nc2ccc(Cc3ccc4nc(Cl)cc(C)c4c3)cc12`, for which the TGI is 30.7 µM in the assay with 786-0 renal; > 100 µM in the assay with BT-549 breast; > 100 µM with DU-145 prostate; > 100 µM in the assay with HOP-92 NSCLC; > 100 µM in the assay on HT29 colon; > 100 µM in the assay on IGROV1 ovarian. Besides, the TGI in the assay on KM12 colon is > 100 µM; with MOLT-4 leukemia, > 100 µM; with SF-295 CNS it was > 100 µM; with TK-10 renal it was 59.7 µM.

Turning to `C/C(=N\NC(=S)N1CCN(c2ccccn2)CC1)c1ccccn1`, the GI50 in the assay on 786-0 renal was 0.00656 µM; in the assay with HOP-92 NSCLC, 0.00295 µM; with HT29 colon it was < 0.0192 µM; with KM12 colon it was 0.0219 µM; in the assay with SF-295 CNS it was 0.0129 µM. The TGI in the assay with 786-0 renal was determined as 13.5 µM; in the assay on BT-549 breast, 0.577 µM; in the assay on DU-145 prostate, 14.1 µM; in the assay with HOP-92 NSCLC, 13 µM; in the assay on HT29 colon, 16 µM; in the assay with IGROV1 ovarian, 15 µM. For the same compound, the TGI in the assay on KM12 colon came out at 14.1 µM; in the assay with MOLT-4 leukemia, 2.66 µM; with SF-295 CNS, 12.4 µM; in the assay on TK-10 renal, 13.9 µM.

`N#CC(C#N)=NNc1ccc2cn[nH]c2c1`: the TGI was > 100 µM in the assay on 786-0 renal; > 100 µM with BT-549 breast; 82.9 µM in the assay on DU-145 prostate; > 100 µM with HOP-92 NSCLC; > 100 µM in the assay with HT29 colon; > 100 µM with IGROV1 ovarian. Further, the TGI in the assay on KM12 colon is > 100 µM; with MOLT-4 leukemia it was 54.2 µM; in the assay on SF-295 CNS it was > 100 µM; with TK-10 renal it was 76.1 µM.

As to `COc1cc(-c2cc3ncccc3c3nc(OCCN(C)C)c4cccnc4c23)cc(OC)c1OC`, the GI50 in the assay with 786-0 renal was 0.318 µM; with BT-549 breast it was 0.665 µM; in the assay on DU-145 prostate it was 0.5 µM; in the assay with HOP-92 NSCLC it was 1.1 µM; in the assay with HT29 colon, 0.383 µM; in the assay on IGROV1 ovarian, 0.466 µM. For the same compound, the GI50 was 1.14 µM in the assay with KM12 colon, 0.314 µM in the assay with MOLT-4 leukemia, 0.533 µM in the assay with SF-295 CNS and 0.294 µM with TK-10 renal. For the same compound, the TGI is 1.16 µM in the assay with 786-0 renal; 3.19 µM in the assay with BT-549 breast; > 100 µM in the assay with DU-145 prostate; 3.2 µM in the assay on HOP-92 NSCLC; > 100 µM with HT29 colon; 1.99 µM in the assay on IGROV1 ovarian. Also, the TGI in the assay on KM12 colon was > 100 µM; in the assay on MOLT-4 leukemia, 2.71 µM; in the assay on SF-295 CNS, 2.39 µM; with TK-10 renal it was 1.39 µM.

Regarding `COC(=O)C12CCC(C)(C)CC1C1=CCC3C4(C)CC(O)C(O)C(C)(C(=O)OC)C4CCC3(C)C1(CO)CC2` (stereo not given), the TGI turned out to be 23.3 µM in the assay on 786-0 renal; 28.8 µM in the assay on BT-549 breast; 29.1 µM with DU-145 prostate; 29.1 µM in the assay with HOP-92 NSCLC; 30.1 µM with HT29 colon; 35.2 µM in the assay on IGROV1 ovarian. The TGI turned out to be 22.3 µM with KM12 colon, 34.4 µM in the assay on MOLT-4 leukemia, 28.8 µM in the assay on SF-295 CNS and 33.7 µM in the assay with TK-10 renal.

With `O=C(Cn1c(C(=O)c2ccc(Cl)cc2)nc(-c2ccc(Cl)cc2)c1-c1ccc(Cl)cc1)c1ccccc1`, the GI50 is > 100 µM in the assay with 786-0 renal; > 100 µM with BT-549 breast; > 100 µM in the assay with DU-145 prostate; 12.9 µM with HOP-92 NSCLC; > 100 µM in the assay with HT29 colon; > 100 µM in the assay on IGROV1 ovarian. The GI50 with KM12 colon, with MOLT-4 leukemia, in the assay with SF-295 CNS and in the assay with TK-10 renal was > 100 µM in each case. The TGI in the assay on 786-0 renal, in the assay with BT-549 breast, with DU-145 prostate, in the assay with HOP-92 NSCLC, in the assay on HT29 colon and with IGROV1 ovarian was > 100 µM each time. Besides, the TGI in the assay with KM12 colon, with MOLT-4 leukemia, with SF-295 CNS and in the assay with TK-10 renal was > 100 µM throughout.

As to `ClCCCSSCCCCl`, the TGI in the assay with 786-0 renal was > 100 µM; in the assay with BT-549 breast, 57.9 µM; in the assay with DU-145 prostate, > 100 µM; in the assay with HOP-92 NSCLC, > 72.8 µM; in the assay with HT29 colon, > 69.1 µM; with IGROV1 ovarian it was > 100 µM. Besides, the TGI is > 95.1 µM in the assay on KM12 colon, 7.42 µM in the assay on MOLT-4 leukemia, > 100 µM in the assay with SF-295 CNS and > 100 µM with TK-10 renal.

With `CNC(=O)c1nn(C)c2c1C(C)(C)Cc1cnc(Nc3cccc(N4CCN(C)CC4)c3)nc1-2`, the GI50 with 786-0 renal was 0.398 µM; in the assay on BT-549 breast it was 2.37 µM; with DU-145 prostate, 0.686 µM; in the assay with HOP-92 NSCLC it was 0.164 µM; in the assay with HT29 colon it was 0.524 µM; with IGROV1 ovarian it was 0.166 µM. Further, the GI50 is 0.0514 µM in the assay on KM12 colon, 0.236 µM with MOLT-4 leukemia, 0.332 µM in the assay with SF-295 CNS and 0.271 µM with TK-10 renal. Moreover, the TGI is 14.1 µM in the assay with 786-0 renal; 13.7 µM in the assay with BT-549 breast; 14 µM in the assay on DU-145 prostate; 1.8 µM with HOP-92 NSCLC; > 35 µM with HT29 colon; 11.6 µM with IGROV1 ovarian. The TGI with KM12 colon amounted to 3.43 µM; with MOLT-4 leukemia, 10.6 µM; with SF-295 CNS, 6.84 µM; in the assay with TK-10 renal, 24.4 µM.
